# pIC50: −log10 of the molar value.
# Target: T1, Pc DHFR (Pneumocystis carinii, UniProt P16184)
# T1 sequence (P16184 1-206): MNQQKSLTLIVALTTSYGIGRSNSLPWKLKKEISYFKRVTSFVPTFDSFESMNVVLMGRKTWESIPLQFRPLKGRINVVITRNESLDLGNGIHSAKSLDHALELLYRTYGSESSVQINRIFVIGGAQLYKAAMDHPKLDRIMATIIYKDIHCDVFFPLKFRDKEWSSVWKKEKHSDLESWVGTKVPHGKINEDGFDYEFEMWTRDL
# Test: not given
# Format: biochemical
# Conditions: IC50 rlDHFR/IC50 pcDHFR
# Method: (§1) The selectivity ratio is a measure of the selectivity of a compound for Pc DHFR or Tg DHFR and is expressed as the IC50 value of the DHFR from rate liver (RL) divided by the IC50 value of either the Pc DHFR or the Tg DHFR, depending on which organism the compounds are being tested against. For example, the selectivity ratio of a compound is calculated by the following formula: [formula]
row,SMILES,Selectivity ratio rl/pc
1,"Nc1nc(N)c2c(CNc3ccc4ccccc4c3)coc2n1 [Compound 163, 2-4-Diamino-5-[(2-naphthylamino)methyl]furo[2,3-d]pyrimidine]",0.89
2,"CCOc1cc(Cc2cnc(N)nc2N)cc(OCC)c1-n1cccc1 [epiroprim, reference compound]",12.8
3,"Nc1nc(N)c2c(CNc3cc(Cl)ccc3Cl)coc2n1 [Compound 169, 2,4-Diamino-5-[(2′,5′-dichloroanilino)methyl]furo[2,3-d]pyrimidine]",1.4

# Same assay, conditions: Table 7; IC50 RL DHFR divided by IC50 Pc DHFR
row,SMILES,Selectivity Ratio: RL DHFR/Pc DHFR
1,"COc1cc(NCc2c[nH]c3nc(N)nc(N)c23)cc(OC)c1OC [Compound 1, 2,4-diamino-5-[(3′,4′,5′-trimethoxyanilino)methyl]pyrrolo[2,3-d]pyrimidine]",<2.4
2,"COc1ccc(NCc2c[nH]c3nc(N)nc(N)c23)cc1 [Compound 3, 2,4-diamino-5-[(4′-methoxyanilino)methyl]pyrrolo[2,3-d]pyrimidine]",0.23

# Same assay, conditions: Table 16
row,SMILES,Selectivity Ratio RL/Pc
1,"Nc1nc(N)c2c(CNc3ccc4ccccc4c3)coc2n1 [Compound 163, 2-4-Diamino-5-[(2-naphthylamino)methyl]furo[2,3-d]pyrimidine]",0.89
2,"Nc1nc(N)c2c(CNc3cc(Cl)ccc3Cl)coc2n1 [Compound 169, 2,4-Diamino-5-[(2′,5′-dichloroanilino)methyl]furo[2,3-d]pyrimidine]",1.4

# Target: T2, Tg DHFR (Toxoplasma gondii, UniProt Q07422)
# T2 sequence (Q07422 1-610): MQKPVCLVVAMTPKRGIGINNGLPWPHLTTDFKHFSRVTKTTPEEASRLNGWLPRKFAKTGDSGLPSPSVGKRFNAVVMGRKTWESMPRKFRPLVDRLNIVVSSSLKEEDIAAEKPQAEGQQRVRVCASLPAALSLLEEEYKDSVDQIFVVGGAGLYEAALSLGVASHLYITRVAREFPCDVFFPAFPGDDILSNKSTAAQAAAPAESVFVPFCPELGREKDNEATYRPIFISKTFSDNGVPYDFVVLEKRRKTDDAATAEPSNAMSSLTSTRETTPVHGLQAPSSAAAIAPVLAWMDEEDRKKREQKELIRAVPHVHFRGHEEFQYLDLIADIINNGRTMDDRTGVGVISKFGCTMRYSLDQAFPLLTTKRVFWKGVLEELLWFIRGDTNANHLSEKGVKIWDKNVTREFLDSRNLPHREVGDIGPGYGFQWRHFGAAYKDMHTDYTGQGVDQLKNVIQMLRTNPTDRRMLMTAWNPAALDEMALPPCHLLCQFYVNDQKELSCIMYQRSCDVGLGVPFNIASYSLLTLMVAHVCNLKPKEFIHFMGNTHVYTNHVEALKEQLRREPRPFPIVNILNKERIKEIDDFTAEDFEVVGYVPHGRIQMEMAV
# Test: biochemical
# Format: biochemical
# Conditions: IC50 rlDHFR/IC50 tgDHFR
# Method: as §1
row,SMILES,Selectivity ratio rl/tg
1,"Nc1nc(N)c2c(CNc3ccc4ccccc4c3)coc2n1 [Compound 163, 2-4-Diamino-5-[(2-naphthylamino)methyl]furo[2,3-d]pyrimidine]",0.96
2,"CCOc1cc(Cc2cnc(N)nc2N)cc(OCC)c1-n1cccc1 [epiroprim, reference compound]",70.6

# Same assay, conditions: Table 7; IC50 RL DHFR divided by IC50 Tg DHFR
row,SMILES,Selectivity Ratio: RL DHFR/Tg
1,"COc1cc(NCc2c[nH]c3nc(N)nc(N)c23)cc(OC)c1OC [Compound 1, 2,4-diamino-5-[(3′,4′,5′-trimethoxyanilino)methyl]pyrrolo[2,3-d]pyrimidine]",7.0
2,"COc1ccc(NCc2c[nH]c3nc(N)nc(N)c23)cc1 [Compound 3, 2,4-diamino-5-[(4′-methoxyanilino)methyl]pyrrolo[2,3-d]pyrimidine]",10.5
3,"Nc1nc(N)c2c(CNc3ccccc3)cnc-2[nH]1 [Compound 8, 2,4-diamino-5-(anilinomethyl)pyrrolo[2,3-d]pyrimidine]",>65

# Same assay, conditions: Table 7; read-out: Tg DHFR IC50
row,SMILES,pIC50
1,"COc1ccc(NCc2c[nH]c3nc(N)nc(N)c23)cc1OC [Compound 2, 2,4-diamino-5-[(3′,4′-dimethoxyanilino)methyl]pyrrolo[2,3-d]pyrimidine]",5.37
2,"COc1cc(NCc2c[nH]c3nc(N)nc(N)c23)cc(OC)c1OC [Compound 1, 2,4-diamino-5-[(3′,4′,5′-trimethoxyanilino)methyl]pyrrolo[2,3-d]pyrimidine]",5.09
3,"COc1ccc(NCc2c[nH]c3nc(N)nc(N)c23)cc1 [Compound 3, 2,4-diamino-5-[(4′-methoxyanilino)methyl]pyrrolo[2,3-d]pyrimidine]",5.22
4,"Nc1nc(N)c2c(CNc3ccccc3)cnc-2[nH]1 [Compound 8, 2,4-diamino-5-(anilinomethyl)pyrrolo[2,3-d]pyrimidine]",5.41

# Same assay, conditions: Table 16
row,SMILES,Selectivity Ratio RL/Tg
1,"Nc1nc(N)c2c(CNc3ccc4ccccc4c3)coc2n1 [Compound 163, 2-4-Diamino-5-[(2-naphthylamino)methyl]furo[2,3-d]pyrimidine]",0.96

# Same assay, conditions: Table 16; read-out: Tg DHFR IC50
row,SMILES,pIC50
1,"Nc1nc(N)c2c(CNc3ccc4ccccc4c3)coc2n1 [Compound 163, 2-4-Diamino-5-[(2-naphthylamino)methyl]furo[2,3-d]pyrimidine]",4.42

# Same assay, conditions: Table 25; read-out: Inhibitor Concentrations (IC50) tgDHFR
row,SMILES,pIC50
1,"Nc1nc(N)c2c(CNc3ccc4ccccc4c3)coc2n1 [Compound 163, 2-4-Diamino-5-[(2-naphthylamino)methyl]furo[2,3-d]pyrimidine]",4.42
2,"CCOc1cc(Cc2cnc(N)nc2N)cc(OCC)c1-n1cccc1 [epiroprim, reference compound]",6.32

# Target: T3, RL DHFR (Rattus norvegicus, UniProt Q920D2)
# T3 construct: Toxoplasmosis gondii (Tg) and rat liver (RL); from tissue; host or cells: rat liver
# T3 sequence (Q920D2 1-187): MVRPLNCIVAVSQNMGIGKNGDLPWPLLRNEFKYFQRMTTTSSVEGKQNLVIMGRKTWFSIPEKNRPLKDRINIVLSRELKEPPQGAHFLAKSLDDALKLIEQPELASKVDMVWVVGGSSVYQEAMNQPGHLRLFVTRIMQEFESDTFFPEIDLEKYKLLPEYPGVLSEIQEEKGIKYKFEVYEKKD
# Test: Inhibition of DHFR from rat liver
# Format: biochemical
# Conditions: Table 7; read-out: RL DHFR IC50
# Method: as §1
row,SMILES,pIC50
1,"COc1ccc(NCc2c[nH]c3nc(N)nc(N)c23)cc1OC [Compound 2, 2,4-diamino-5-[(3′,4′-dimethoxyanilino)methyl]pyrrolo[2,3-d]pyrimidine]",3.94
2,"COc1cc(NCc2c[nH]c3nc(N)nc(N)c23)cc(OC)c1OC [Compound 1, 2,4-diamino-5-[(3′,4′,5′-trimethoxyanilino)methyl]pyrrolo[2,3-d]pyrimidine]",4.25
3,"COc1ccc(NCc2c[nH]c3nc(N)nc(N)c23)cc1 [Compound 3, 2,4-diamino-5-[(4′-methoxyanilino)methyl]pyrrolo[2,3-d]pyrimidine]",4.20
4,"Nc1nc(N)c2c(CNc3ccccc3)cnc-2[nH]1 [Compound 8, 2,4-diamino-5-(anilinomethyl)pyrrolo[2,3-d]pyrimidine]",< 3.60

# Same assay, conditions: Table 16; read-out: RL DHFR IC50
row,SMILES,pIC50
1,"Nc1nc(N)c2c(CNc3ccc4ccccc4c3)coc2n1 [Compound 163, 2-4-Diamino-5-[(2-naphthylamino)methyl]furo[2,3-d]pyrimidine]",4.44

# Same assay, conditions: Table 25; read-out: Inhibitor Concentrations (IC50) rlDHFR
row,SMILES,pIC50
1,"Nc1nc(N)c2c(CNc3ccc4ccccc4c3)coc2n1 [Compound 163, 2-4-Diamino-5-[(2-naphthylamino)methyl]furo[2,3-d]pyrimidine]",4.44
2,"Nc1nc(N)c2c(CNc3cc(Cl)ccc3Cl)coc2n1 [Compound 169, 2,4-Diamino-5-[(2′,5′-dichloroanilino)methyl]furo[2,3-d]pyrimidine]",4.14

# Target: T1, Pc DHFR
# Test: biochemical
# Conditions: Table 7; IC50 RL DHFR divided by IC50 Pc DHFR
row,SMILES,Selectivity Ratio: RL DHFR/Pc DHFR
1,"Nc1nc(N)c2c(CNc3ccccc3)cnc-2[nH]1 [Compound 8, 2,4-diamino-5-(anilinomethyl)pyrrolo[2,3-d]pyrimidine]",>1

# Same assay, conditions: Table 7; read-out: Pc DHFR IC50
row,SMILES,pIC50
1,"COc1ccc(NCc2c[nH]c3nc(N)nc(N)c23)cc1OC [Compound 2, 2,4-diamino-5-[(3′,4′-dimethoxyanilino)methyl]pyrrolo[2,3-d]pyrimidine]",3.92
2,"COc1cc(NCc2c[nH]c3nc(N)nc(N)c23)cc(OC)c1OC [Compound 1, 2,4-diamino-5-[(3′,4′,5′-trimethoxyanilino)methyl]pyrrolo[2,3-d]pyrimidine]",< 4.64
3,"COc1ccc(NCc2c[nH]c3nc(N)nc(N)c23)cc1 [Compound 3, 2,4-diamino-5-[(4′-methoxyanilino)methyl]pyrrolo[2,3-d]pyrimidine]",3.55
4,"Nc1nc(N)c2c(CNc3ccccc3)cnc-2[nH]1 [Compound 8, 2,4-diamino-5-(anilinomethyl)pyrrolo[2,3-d]pyrimidine]",3.60

# Same assay, conditions: Table 16; read-out: Pc DHFR IC50
row,SMILES,pIC50
1,"Nc1nc(N)c2c(CNc3ccc4ccccc4c3)coc2n1 [Compound 163, 2-4-Diamino-5-[(2-naphthylamino)methyl]furo[2,3-d]pyrimidine]",4.39
2,"Nc1nc(N)c2c(CNc3cc(Cl)ccc3Cl)coc2n1 [Compound 169, 2,4-Diamino-5-[(2′,5′-dichloroanilino)methyl]furo[2,3-d]pyrimidine]",4.29

# Same assay, conditions: Table 25; read-out: Inhibitor Concentrations (IC50) pcDHFR
row,SMILES,pIC50
1,"Nc1nc(N)c2c(CNc3ccc4ccccc4c3)coc2n1 [Compound 163, 2-4-Diamino-5-[(2-naphthylamino)methyl]furo[2,3-d]pyrimidine]",4.39
2,"Nc1nc(N)c2c(CNc3cc(Cl)ccc3Cl)coc2n1 [Compound 169, 2,4-Diamino-5-[(2′,5′-dichloroanilino)methyl]furo[2,3-d]pyrimidine]",4.29
